Results as given in patent US6914045B2, “Glycopeptide antibiotics” (Wyeth Holdings Corporation, priority 2001, dated 2005).
In brackets after ≈: the same amount, converted by molar mass.

How the values were obtained:
Assay in all cases: in vitro antibacterial evaluation, MIC by broth dilution
Format in all cases: cell-based
Enterococcus sp. = conditions: broth dilution, 18 hours at 35° C.
How it was run: (§1)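 Read-out: the lowest concentration at which the test strain fails to grow. Serial dilutions (64-0.06 μg/mL) in Muller-Hinton II […], 5×10^5 CFU/mL inoculum, NCCLS M7-A2 procedure.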

Staphylococcus sp. = conditions: broth dilution, 18 hours at 35° C.; for MIC Staphylococcus aureus (ATCC 29213): strain ATCC 29213; for MIC Staphylococcus aureus (GC 1131): strain GC 1131; for MIC Staphylococcus aureus (GC 3051): strain GC 3051; for MIC Staphylococcus aureus (GC 3053): strain GC 3053; for MIC Staphylococcus aureus (GC 4541): strain GC 4541; for MIC Staphylococcus aureus (GC 4542): strain GC 4542; for MIC Staphylococcus aureus-SMITH (GC 4543): strain GC 4543; for MIC Staphylococcus aureus (GC 4544): strain GC 4544; for MIC Staphylococcus aureus (GC 4545): strain GC 4545; for MIC Staphylococcus haemolyticus (GC 4546): strain GC 4546; for MIC Coagulase Negative Staphylococcus (GC 4547): strain GC 4547; for MIC Coagulase Negative Staphylococcus (GC 4548): strain GC 4548; for MIC Coagulase Negative Staphylococcus (GC 4549): strain GC 4549; for MIC Coagulase Negative Staphylococcus (GC 4551): strain GC 4551
How it was run: as §1

Streptococcus sp. = conditions: broth dilution, 18 hours at 35° C.
How it was run: as §1

Escherichia coli = conditions: 18 hours at 35° C.
How it was run: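 Broth dilution MIC per NCCLS M7-A2 in Mueller-Hinton II medium, inoculum 5×10^5 CFU/mL, antibiotic range 64-0.06 μg/mL. MIC taken as lowest concentration inhibiting growth.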

CC(C)C(=O)Nc1cc(CC2NC(=O)C(C(C)c3ccccc3)NC(=O)CNC(=O)C(CO)NC(=O)C(C(O)C3CNC(=N)N3C3OC(CO)C(O)C(O)C3O)NC(=O)C(C(O)C3CNC(=N)N3)NC2=O)ccc1O (stereo not drawn) [Example 15, Cyclo[glycyl-β-methylphenylalanyl-3-(2-methylpropanamido)tyrosyl-3-(2-iminoimidazolidin-4-yl)seryl-3-(3-hexopyranosyl-2-iminoimidazolidin-4-yl)serylseryl]] was tested, and the “MIC Enterococcus faecalis (ATCC 29212)” value (Enterococcus sp.; strain ATCC 29212) was greater than 128 µg/mL, the “MIC Enterococcus faecalis (GC 2242)” value (Enterococcus sp.; strain GC 2242) was greater than 128 µg/mL and the “MIC Enterococcus faecium (GC 2243)” value (Enterococcus sp.; strain GC 2243) was greater than 128 µg/mL. The “MIC Enterococcus faecalis (GC 2691)” value (Enterococcus sp.; strain GC 2691) was greater than 128 µg/mL, the “MIC Enterococcus faecalis (GC 3059)” value (Enterococcus sp.; strain GC 3059) was greater than 128 µg/mL and the “MIC Enterococcus faecalis (GC 4552)” value (Enterococcus sp.; strain GC 4552) was greater than 128 µg/mL. The “MIC Enterococcus faecalis (GC 4553)” value (Enterococcus sp.; strain GC 4553) was greater than 128 µg/mL, the “MIC Enterococcus faecalis (GC 4554)” value (Enterococcus sp.; strain GC 4554) was greater than 128 µg/mL and the “MIC Enterococcus faecium (GC 4556)” value (Enterococcus sp.; strain GC 4556) was greater than 128 µg/mL. The “MIC Enterococcus faecium (GC 4557)” value (Enterococcus sp.; strain GC 4557) was greater than 128 µg/mL, the “MIC Enterococcus avium (GC 4558)” value (Enterococcus sp.; strain GC 4558) was 128 µg/mL (≈ 121 µM) and the “MIC Enterococcus faecalis (GC 6189)” value (Enterococcus sp.; strain GC 6189) was greater than 128 µg/mL. The “MIC Staphylococcus aureus (ATCC 29213)” value (Staphylococcus sp.) was greater than 128 µg/mL, the “MIC Staphylococcus aureus (GC 1131)” value (Staphylococcus sp.) was greater than 128 µg/mL and the “MIC Staphylococcus aureus (GC 3051)” value (Staphylococcus sp.) was greater than 128 µg/mL. The “MIC Staphylococcus aureus (GC 3053)” value (Staphylococcus sp.) was greater than 128 µg/mL, the “MIC Staphylococcus aureus (GC 4541)” value (Staphylococcus sp.) was greater than 128 µg/mL and the “MIC Staphylococcus aureus (GC 4542)” value (Staphylococcus sp.) was greater than 128 µg/mL. For the same compound, the “MIC Staphylococcus aureus-SMITH (GC 4543)” value (Staphylococcus sp.) was greater than 128 µg/mL, the “MIC Staphylococcus aureus (GC 4544)” value (Staphylococcus sp.) was greater than 128 µg/mL and the “MIC Staphylococcus aureus (GC 4545)” value (Staphylococcus sp.) was greater than 128 µg/mL. For the same compound, the “MIC Staphylococcus haemolyticus (GC 4546)” value (Staphylococcus sp.) was greater than 128 µg/mL, the “MIC Coagulase Negative Staphylococcus (GC 4547)” value (Staphylococcus sp.) was greater than 128 µg/mL and the “MIC Coagulase Negative Staphylococcus (GC 4548)” value (Staphylococcus sp.) was greater than 128 µg/mL. For the same compound, the “MIC Coagulase Negative Staphylococcus (GC 4549)” value (Staphylococcus sp.) was greater than 128 µg/mL, the “MIC Coagulase Negative Staphylococcus (GC 4551)” value (Staphylococcus sp.) was greater than 128 µg/mL and the “MIC Coagulase Negative Staphylococcus (GC 6257)” value (Staphylococcus sp.; strain GC 6257) was greater than 128 µg/mL. For the same compound, the “MIC Streptococcus pneumoniae (ATCC 6301)” value (Streptococcus sp.; strain ATCC 6301) was greater than 128 µg/mL, the “MIC Streptococcus pneumoniae (GC 1894)” value (Streptococcus sp.; strain GC 1894) was 128 µg/mL (≈ 121 µM) and the “MIC Streptococcus pyogenes (GC 4563)” value (Streptococcus sp.; strain GC 4563) was greater than 128 µg/mL. The “MIC Streptococcus agalactiae (GC 4564)” value (Streptococcus sp.; strain GC 4564) was 128 µg/mL (≈ 121 µM), the “MIC Streptococcus pneumoniae (GC 4565)” value (Streptococcus sp.; strain GC 4565) was 64 µg/mL (≈ 60.6 µM) and the “MIC Escherichia coli (ATCC 25922)” value (Escherichia coli; strain ATCC 25922, broth dilution) was greater than 128 µg/mL. For the same compound, the “MIC Escherichia coli (GC 4559)” value (Escherichia coli; strain GC 4559, broth dilution) was greater than 128 µg/mL and the “MIC Escherichia coli (GC 4560)” value (Escherichia coli; strain GC 4560, broth dilution) was 128 µg/mL (≈ 121 µM).
CC(C)=CCN1CC(C(O)C2NC(=O)C(C(O)C3CNC(=N)N3)NC(=O)C(Cc3ccc(OC4OC(CO)C(OC5OC6COC7(OC6C(O)C5O)C5CC6CC(C5)CC7C6)C(O)C4O)cc3)NC(=O)C(C(C)c3ccccc3)NC(=O)CNC(=O)C(CO)NC2=O)N(C2OC(CO)C(O)C(O)C2O)C1=N (centres unmarked) [Example 225] was tested, and the “MIC Enterococcus avium (GC 4558)” value (Enterococcus sp.) was 4 µg/mL (≈ 2.67 µM), the “MIC Enterococcus faecalis (ATCC 29212)” value (Enterococcus sp.) was 8 µg/mL (≈ 5.35 µM) and the “MIC Enterococcus faecalis (GC 2242)” value (Enterococcus sp.) was 8 µg/mL (≈ 5.35 µM). For the same compound, the “MIC Enterococcus faecalis (GC 2691)” value (Enterococcus sp.) was 16 µg/mL (≈ 10.7 µM), the “MIC Enterococcus faecalis (GC 3059)” value (Enterococcus sp.) was 16 µg/mL (≈ 10.7 µM) and the “MIC Enterococcus faecalis (GC 4552)” value (Enterococcus sp.) was 8 µg/mL (≈ 5.35 µM). For the same compound, the “MIC Enterococcus faecalis (GC 4553)” value (Enterococcus sp.) was 4 µg/mL (≈ 2.67 µM), the “MIC Enterococcus faecalis (GC 4554)” value (Enterococcus sp.) was 16 µg/mL (≈ 10.7 µM) and the “MIC Enterococcus faecalis (GC 6189)” value (Enterococcus sp.) was 16 µg/mL (≈ 10.7 µM). For the same compound, the “MIC Enterococcus faecium (GC 2243)” value (Enterococcus sp.) was 4 µg/mL (≈ 2.67 µM), the “MIC Enterococcus faecium (GC 4556)” value (Enterococcus sp.) was 8 µg/mL (≈ 5.35 µM) and the “MIC Enterococcus faecium (GC 4557)” value (Enterococcus sp.) was 1 µg/mL (≈ 0.669 µM). For the same compound, the “MIC Enterococcus faecalis (ATCC 29212)” value (Enterococcus sp.; inoculum 5×10^5 CFU/mL, strain ATCC 29212) was 8 µg/mL (≈ 5.35 µM), the “MIC Enterococcus faecalis (GC 2242)” value (Enterococcus sp.; inoculum 5×10^5 CFU/mL, strain GC 2242) was 8 µg/mL (≈ 5.35 µM) and the “MIC Enterococcus faecium (GC 2243)” value (Enterococcus sp.; inoculum 5×10^5 CFU/mL, strain GC 2243) was 4 µg/mL (≈ 2.67 µM). The “MIC Enterococcus faecalis (GC 2691)” value (Enterococcus sp.; inoculum 5×10^5 CFU/mL, strain GC 2691) was 16 µg/mL (≈ 10.7 µM), the “MIC Enterococcus faecalis (GC 3059)” value (Enterococcus sp.; inoculum 5×10^5 CFU/mL, strain GC 3059) was 16 µg/mL (≈ 10.7 µM) and the “MIC Enterococcus faecalis (GC 4552)” value (Enterococcus sp.; inoculum 5×10^5 CFU/mL, strain GC 4552) was 8 µg/mL (≈ 5.35 µM). The “MIC Enterococcus faecalis (GC 4553)” value (Enterococcus sp.; inoculum 5×10^5 CFU/mL, strain GC 4553) was 4 µg/mL (≈ 2.67 µM), the “MIC Enterococcus faecalis (GC 4554)” value (Enterococcus sp.; inoculum 5×10^5 CFU/mL, strain GC 4554) was 16 µg/mL (≈ 10.7 µM) and the “MIC Enterococcus faecium (GC 4556)” value (Enterococcus sp.; inoculum 5×10^5 CFU/mL, strain GC 4556) was 8 µg/mL (≈ 5.35 µM). The “MIC Enterococcus faecium (GC 4557)” value (Enterococcus sp.; inoculum 5×10^5 CFU/mL, strain GC 4557) was 1 µg/mL (≈ 0.669 µM), the “MIC Enterococcus avium (GC 4558)” value (Enterococcus sp.; inoculum 5×10^5 CFU/mL, strain GC 4558) was 4 µg/mL (≈ 2.67 µM) and the “MIC Enterococcus faecalis (GC 6189)” value (Enterococcus sp.; inoculum 5×10^5 CFU/mL, strain GC 6189) was 16 µg/mL (≈ 10.7 µM). The “MIC Staphylococcus aureus (ATCC 29213)” value (Staphylococcus sp.) was 4 µg/mL (≈ 2.67 µM), the “MIC Staphylococcus aureus (GC 1131)” value (Staphylococcus sp.) was 8 µg/mL (≈ 5.35 µM) and the “MIC Staphylococcus aureus (GC 3051)” value (Staphylococcus sp.) was 4 µg/mL (≈ 2.67 µM). For the same compound, the “MIC Staphylococcus aureus (GC 3053)” value (Staphylococcus sp.) was 8 µg/mL (≈ 5.35 µM), the “MIC Staphylococcus aureus (GC 4541)” value (Staphylococcus sp.) was 4 µg/mL (≈ 2.67 µM) and the “MIC Staphylococcus aureus (GC 4542)” value (Staphylococcus sp.) was 8 µg/mL (≈ 5.35 µM). The “MIC Staphylococcus aureus-SMITH (GC 4543)” value (Staphylococcus sp.) was 4 µg/mL (≈ 2.67 µM), the “MIC Staphylococcus aureus (GC 4544)” value (Staphylococcus sp.) was 8 µg/mL (≈ 5.35 µM) and the “MIC Staphylococcus aureus (GC 4545)” value (Staphylococcus sp.) was 4 µg/mL (≈ 2.67 µM). For the same compound, the “MIC Staphylococcus haemolyticus (GC 4546)” value (Staphylococcus sp.) was 4 µg/mL (≈ 2.67 µM), the “MIC Coagulase Negative Staphylococcus (GC 4547)” value (Staphylococcus sp.) was 4 µg/mL (≈ 2.67 µM) and the “MIC Coagulase Negative Staphylococcus (GC 4548)” value (Staphylococcus sp.) was 2 µg/mL (≈ 1.34 µM). The “MIC Coagulase Negative Staphylococcus (GC 4549)” value (Staphylococcus sp.) was 2 µg/mL (≈ 1.34 µM), the “MIC Coagulase Negative Staphylococcus (GC 4551)” value (Staphylococcus sp.) was 4 µg/mL (≈ 2.67 µM) and the “MIC Streptococcus agalactiae (GC 4564)” value (Streptococcus sp.) was 0.5 µg/mL (≈ 0.334 µM). For the same compound, the “MIC Streptococcus pneumoniae (ATCC 6301)” value (Streptococcus sp.) was 0.5 µg/mL (≈ 0.334 µM), the “MIC Streptococcus pneumoniae (GC 1894)” value (Streptococcus sp.) was less than 0.12 µg/mL and the “MIC Streptococcus pneumoniae (GC 4565)” value (Streptococcus sp.) was 1 µg/mL (≈ 0.669 µM). For the same compound, the “MIC Streptococcus pyogenes (GC 4563)” value (Streptococcus sp.) was 0.5 µg/mL (≈ 0.334 µM), the “MIC Streptococcus pneumoniae (ATCC 6301)” value (Streptococcus sp.; inoculum 5×10^5 CFU/mL, strain ATCC 6301) was 0.5 µg/mL (≈ 0.334 µM) and the “MIC Streptococcus pneumoniae (GC 1894)” value (Streptococcus sp.; inoculum 5×10^5 CFU/mL, strain GC 1894) was less than 0.12 µg/mL. The “MIC Streptococcus pyogenes (GC 4563)” value (Streptococcus sp.; inoculum 5×10^5 CFU/mL, strain GC 4563) was 0.5 µg/mL (≈ 0.334 µM), the “MIC Streptococcus agalactiae (GC 4564)” value (Streptococcus sp.; inoculum 5×10^5 CFU/mL, strain GC 4564) was 0.5 µg/mL (≈ 0.334 µM) and the “MIC Streptococcus pneumoniae (GC 4565)” value (Streptococcus sp.; inoculum 5×10^5 CFU/mL, strain GC 4565) was 1 µg/mL (≈ 0.669 µM). For the same compound, the “MIC Escherichia coli (ATCC 25922)” value (Escherichia coli) was 128 µg/mL (≈ 85.6 µM), the “MIC Escherichia coli (GC 4559)” value (Escherichia coli) was 128 µg/mL (≈ 85.6 µM) and the “MIC Escherichia coli (GC 4560)” value (Escherichia coli) was 4 µg/mL (≈ 2.67 µM).
